Laboratory results reported in ChEMBL document CHEMBL3414464, “Design, synthesis, and evaluation of NO-donor containing carbonic anhydrase inhibitors to lower intraocular pressure” (J Med Chem, 2015).
Values after ≈ are worked out from the molar mass of the structure shown.

Key:
[1] = (§1) Drug level in iris ciliary body of pigmented male Dutch-belted rabbit assessed as compound formation treated with 2 x 25 uL topical dose of formulated (4S,6S)-4-Ethylamino-6-(3-nitrooxy-propyl)-7,7-dioxo-4,5,6,7-tetrahydro-7lambda6-thieno[2,3-b]thiopyran-2-sulfonic acid amide in each eye and measured 4 hrs post dose by LC-MS/MS method; type: ADME, tissue-based, Oryctolagus cuniculus; settings: in vivo, topical_or_ocular
[2] = as §1, with “aqueous humor” for “iris ciliary body”; type: ADME, tissue-based, Oryctolagus cuniculus; settings: in vivo, topical_or_ocular
[3] = Drug level in iris ciliary body of pigmented male Dutch-belted rabbit treated with 2 x 25 uL topical dose of formulated compound in each eye and measured 4 hrs post dose by LC-MS/MS method; type: ADME, tissue-based, Oryctolagus cuniculus; settings: in vivo, topical_or_ocular
Cynomolgus monkey [4] = assay: Reduction in intraocular pressure unilaterally lasered ocular hypertensive cynomolgus monkey treated with 2% 2 x 25 uL topical dose of formulated compound in right eye and measured after 2 hrs by ocular hypertension primate tonometry; type: functional, Macaca fascicularis
Oryctolagus cuniculus = assay: Reduction in intraocular pressure in pigmented male Dutch-belted rabbit assessed as intraocular pressure level at trough treated with 2% 2 x 25 uL topical dose of formulated compound in right eye and measured after 1 to 2 hrs by non-contact tonometry; type: functional
[5] = Drug level in aqueous humor of pigmented male Dutch-belted rabbit treated with 2 x 25 uL topical dose of formulated compound in each eye and measured 4 hrs post dose by LC-MS/MS method; type: ADME, tissue-based, Oryctolagus cuniculus; settings: in vivo, topical_or_ocular
[6] = (§2) Drug level in iris ciliary body of pigmented male Dutch-belted rabbit assessed as compound formation treated with 2 x 25 uL topical dose of formulated (R)-3-(4-(Ethylamino)-1,1-dioxido-6-sulfamoyl-3,4-dihydro-2Hthieno[3,2-e][1,2]thiazin-2-yl)propyl nitrate in each eye and measured 4 hrs post dose by LC-MS/MS method; type: ADME, tissue-based, Oryctolagus cuniculus; settings: in vivo, topical_or_ocular
[7] = as §2, with “aqueous humor” for “iris ciliary body”; type: ADME, tissue-based, Oryctolagus cuniculus; settings: in vivo, topical_or_ocular
Cynomolgus monkey [8] = assay: Reduction in intraocular pressure unilaterally lasered ocular hypertensive cynomolgus monkey treated with 1% 2 x 25 uL topical dose of formulated compound in right eye and measured after 2 hrs by ocular hypertension primate tonometry; type: functional, Macaca fascicularis

Description for physchem: Solubility of the compound

Row | Compound | Drug uptake [3] | Drug uptake [5] | solubility (physchem) [µg/mL] | Activity (Oryctolagus cuniculus) [mmHg] | other results
1 | CCN[C@H]1C[C@H](CCCO)S(=O)(=O)c2sc(S(N)(=O)=O)cc21 | – | – | – | – | Drug metabolism [1]: metabolite_detected; Drug metabolism [2]: metabolite_detected
2 | CCN[C@H]1C[C@H](CCCO[N+](=O)[O-])S(=O)(=O)c2sc(S(N)(=O)=O)cc21 | Active | Active | 11300 (≈ 27.3 mM) | 5 | –
3 | CCN[C@H]1CN(CCCO)S(=O)(=O)c2sc(S(N)(=O)=O)cc21 | – | – | – | – | Drug metabolism [6]: metabolite_detected; Drug metabolism [7]: metabolite_detected

More lines, main results first:

Row | Drug uptake [3] | Drug uptake [5] | solubility (physchem) [µg/mL] | Compound | Activity (Oryctolagus cuniculus) [mmHg] | other results
4 | Active | Active | 2200 (≈ 5.31 mM) | CCN[C@H]1CN(CCCO[N+](=O)[O-])S(=O)(=O)c2sc(S(N)(=O)=O)cc21 | 5 | Activity (Cynomolgus monkey [4]): 10.5 mmHg
5 | – | – | 500 (≈ 1.3 mM) | CCN[C@H]1CN(CCCOC)S(=O)(=O)c2sc(S(N)(=O)=O)cc21 [BRINZOLAMIDE] | – | Activity (Cynomolgus monkey [8]): 2 mmHg
